Legend:
[1] = system: ovarian cancer cell line, SK-OV-3; assay: SK-OV-3 cell growth inhibition (MTT, 72 hrs); assay type: cell-based; details: Homo sapiens, concentration giving 50% cell survival, reported as ranges
Method in brief: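 After overnight seeding in McCoy's medium with 10% FBS, SK-OV-3 cells were exposed to compound at 0.003-10 μM for 72 hrs at 37° C. MTT was then added for 3 h, with DMSO solubilization and OD read at 535 nm. CC50 is the concentration giving 50% survival relative to untreated control, reported as ranges.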

[2] = biological target: T1, cIAP-1 BIR-3 (Homo sapiens, UniProt Q13490); assay: Fluorescence polarization binding to cIAP-1 BIR-3 with labeled peptide AbuRPF-K(5-Fam)-NH2; details: 40 nM BIR3, 5 nM labeled peptide, reported as ranges, read-out: KD (c-IAP-1 BIR3)
T1 construct: 40 nM of the respective IAP BIR3
Method in brief: (§1)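 Competitive FP: compounds titrated against 5 nM AbuRPF-K(5-Fam)-NH2 tracer and 40 nM BIR3 protein, 15 min at RT in 0.1 M potassium phosphate pH 7.5 with bovine γ-globulin. Polarization read at 485/520 nm; KD reported in ranges A <0.1, B 0.1–1, C >1–10, D >10 μM.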

[3] = biological target: T2, XIAP BIR-3 (Homo sapiens, UniProt P98170); assay: Fluorescence polarization binding to XIAP BIR-3 with labeled peptide AbuRPF-K(5-Fam)-NH2; details: 40 nM BIR3, 5 nM labeled peptide, reported as ranges
T2 construct: 40 nM of the respective IAP BIR3
Method in brief: as §1

T2 sequence (P98170 241-356 limits assumed): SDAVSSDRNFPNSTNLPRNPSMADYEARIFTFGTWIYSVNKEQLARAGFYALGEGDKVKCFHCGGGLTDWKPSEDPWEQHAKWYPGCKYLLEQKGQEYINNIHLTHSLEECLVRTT
T1 sequence (Q13490 253-363 limits assumed): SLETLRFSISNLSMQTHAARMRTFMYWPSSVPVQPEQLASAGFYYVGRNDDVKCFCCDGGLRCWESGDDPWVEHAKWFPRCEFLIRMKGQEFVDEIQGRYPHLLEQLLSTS

SMILES | Kd [2] [nM] | Kd [3] [nM] | CC50 [1] [nM]
CN[C@@H](C)C(=O)N[C@H](C(=O)N1CC[C@@H]2[C@H]1[C@@H](OC(=O)NC(C)(C)C)CN2C(=O)NC(C)C)C(C)(C)C [Example 55, tert-Butyl-carbamic acid 4-[3,3-dimethyl-2-(2-methylamino-propionylamino)-butyryl]-1-isopropylcarbamoyl-octahydro-pyrrolo[3,2-b]pyrrol-3-yl ester] | < 100 | 1000 to 10000 | 100 to 1000
CN[C@@H](C)C(=O)N[C@H](C(=O)N1CC[C@@H]2[C@H]1[C@@H](OCc1ccc(F)cc1)CN2C1CCOCC1)C(C)(C)C [Example 43, (S)—N—((S)-1-((3aR,6S,6aS)-6-(4-fluorobenzyloxy)-4-(tetrahydro-2H-pyran-4-yl)hexahydropyrrolo[3,2-b]pyrrol-1(2H)-yl)-3,3-dimethyl-1-oxobutan-2-yl)-2-(methylamino)propanamide] | < 100 | 100 to 1000 | < 100
CN[C@@H](C)C(=O)N[C@H](C(=O)N1CC[C@@H]2[C@H]1[C@@H](OC(=O)Nc1ccc3ccccc3c1)CN2C(=O)NC(C)C)C(C)(C)C [Example 51, Naphthalen-2-yl-carbamic acid 4-[3,3-dimethyl-2-(2-methylamino-propionylamino)-butyryl]-1-isopropylcarbamoyl-octahydro-pyrrolo[3,2-b]pyrrol-3-yl ester] | < 100 | 100 to 1000 | 1000 to 10000
CN[C@@H](C)C(=O)N[C@H](C(=O)N1CC[C@@H]2[C@H]1[C@@H](OC(=O)N1CCCCC1)CN2C(=O)NC(C)C)C(C)(C)C [Example 59, Piperidine-1-carboxylic acid 4-[3,3-dimethyl-2-(2-methylamino-propionylamino)-butyryl]-1-isopropylcarbamoyl-octahydro-pyrrolo[3,2-b]pyrrol-3-yl ester] | < 100 | 1000 to 10000 | 1000 to 10000
CN[C@@H](C)C(=O)N[C@H](C(=O)N1CC[C@@H]2[C@H]1[C@@H](OCc1ccc(F)cc1)CN2c1ncccn1)C(C)(C)C [Example 45, (S)—N—((S)-1-((3aR,6S,6aS)-6-(4-fluorobenzyloxy)-4-(pyrimidin-2-yl)hexahydropyrrolo[3,2-b]pyrrol-1(2H)-yl)-3,3-dimethyl-1-oxobutan-2-yl)-2-(methylamino)propanamide] | < 100 | 100 to 1000 | < 100

Now from value to compound, other results behind:

Kd [2] [nM] | Kd [3] [nM] | SMILES | CC50 [1] [nM]
< 100 | 100 to 1000 | CN[C@@H](C)C(=O)N[C@H](C(=O)N1CC[C@@H]2[C@H]1[C@@H](OCc1ccc(F)cc1)CN2C1CCCC1)C(C)(C)C [Example 44, (S)—N—((S)-1-((3aR,6S,6aS)-4-cyclopentyl-6-(4-fluorobenzyloxy)hexahydropyrrolo[3,2-b]pyrrol-1(2H)-yl)-3,3-dimethyl-1-oxobutan-2-yl)-2-(methylamino) propanamide] | < 100
< 100 | < 100 | CNC(=O)N1C[C@H](Oc2ccc(F)cc2)[C@@H]2[C@H]1CCN2C(=O)[C@@H](NC(=O)[C@H](C)NC)C1CCCCC1 [Example 26, 4-[2-Cyclohexyl-2-(2-methylamino-propionylamino)-acetyl]-3-(4-fluoro-phenoxy)-hexahydro-pyrrolo[3,2-b]pyrrole-1-carboxylic acid methylamide] | < 100
< 100 | < 100 | CN[C@@H](C)C(=O)N[C@H](C(=O)N1CC[C@H]2NC[C@H](Oc3ccc4ccccc4c3)[C@H]21)C1CCCCC1 [Example 7, N-{1-Cyclohexyl-2-[6-(naphthalen-2-yloxy)-hexahydro-pyrrolo[3,2-b]pyrrol-1-yl]-2-oxo-ethyl}-2-methylamino-propionamide] | < 100

From patent publication US8415486B2, “IAP inhibitors” (TetraLogic Pharmaceuticals Corp., priority 2009, dated 2013)
